Assay [1] deals with Glycogen synthase kinase-3 beta (Homo sapiens, UniProt P49841). Put plainly: Inhibition of human Glycogen synthase kinase-3 beta.
Assay [2] concerns the target Cyclin-dependent kinase 2 (Homo sapiens, UniProt P24941). Put plainly: Inhibition of cyclin-dependent kinase 2.
In assay [3] the target is Vascular endothelial growth factor receptor 2 (Homo sapiens, UniProt P35968). Put plainly: Inhibition of Vascular endothelial growth factor receptor 2 kinase.
The subject of the next assay is L6. Description: Potency of compound in glycogen accumulation in L6 cells. It is filed as functional, cell-based. Conditions: Rattus norvegicus.

Sequence of Vascular endothelial growth factor receptor 2 (P35968 whole entry): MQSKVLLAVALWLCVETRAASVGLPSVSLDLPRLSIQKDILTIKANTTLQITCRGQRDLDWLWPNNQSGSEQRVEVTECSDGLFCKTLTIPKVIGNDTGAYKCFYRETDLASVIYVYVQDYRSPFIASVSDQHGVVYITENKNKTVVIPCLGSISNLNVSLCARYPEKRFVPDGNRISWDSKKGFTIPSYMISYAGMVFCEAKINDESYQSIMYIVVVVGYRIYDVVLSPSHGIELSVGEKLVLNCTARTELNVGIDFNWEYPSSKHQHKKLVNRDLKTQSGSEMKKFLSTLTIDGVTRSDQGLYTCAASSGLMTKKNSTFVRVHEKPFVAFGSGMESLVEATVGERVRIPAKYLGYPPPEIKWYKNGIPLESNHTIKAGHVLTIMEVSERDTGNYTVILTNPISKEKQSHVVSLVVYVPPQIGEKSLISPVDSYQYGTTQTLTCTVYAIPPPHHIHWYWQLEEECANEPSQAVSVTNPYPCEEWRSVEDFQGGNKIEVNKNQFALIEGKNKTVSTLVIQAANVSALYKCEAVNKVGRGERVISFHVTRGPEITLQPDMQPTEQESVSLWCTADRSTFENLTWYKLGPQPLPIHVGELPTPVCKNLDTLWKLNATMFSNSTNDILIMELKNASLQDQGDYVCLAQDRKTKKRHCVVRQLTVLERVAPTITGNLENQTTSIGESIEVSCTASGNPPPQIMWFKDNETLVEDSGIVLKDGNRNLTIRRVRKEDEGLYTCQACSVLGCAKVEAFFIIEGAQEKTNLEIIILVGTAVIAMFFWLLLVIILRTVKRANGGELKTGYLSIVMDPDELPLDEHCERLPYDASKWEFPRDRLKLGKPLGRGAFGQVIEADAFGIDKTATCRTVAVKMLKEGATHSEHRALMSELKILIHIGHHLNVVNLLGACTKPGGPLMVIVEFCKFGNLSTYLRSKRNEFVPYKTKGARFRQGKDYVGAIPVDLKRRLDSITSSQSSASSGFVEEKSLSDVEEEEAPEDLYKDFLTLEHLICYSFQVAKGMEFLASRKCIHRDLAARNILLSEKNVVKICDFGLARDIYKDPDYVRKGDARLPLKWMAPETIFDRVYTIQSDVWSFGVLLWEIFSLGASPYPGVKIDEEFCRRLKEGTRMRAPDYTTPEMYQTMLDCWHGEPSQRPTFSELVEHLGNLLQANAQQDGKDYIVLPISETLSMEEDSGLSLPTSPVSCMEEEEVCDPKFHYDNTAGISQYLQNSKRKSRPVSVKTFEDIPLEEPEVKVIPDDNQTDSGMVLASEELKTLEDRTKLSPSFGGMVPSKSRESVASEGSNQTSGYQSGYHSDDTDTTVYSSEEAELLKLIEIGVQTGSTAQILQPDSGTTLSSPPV
Sequence of Glycogen synthase kinase-3 beta (P49841 whole entry): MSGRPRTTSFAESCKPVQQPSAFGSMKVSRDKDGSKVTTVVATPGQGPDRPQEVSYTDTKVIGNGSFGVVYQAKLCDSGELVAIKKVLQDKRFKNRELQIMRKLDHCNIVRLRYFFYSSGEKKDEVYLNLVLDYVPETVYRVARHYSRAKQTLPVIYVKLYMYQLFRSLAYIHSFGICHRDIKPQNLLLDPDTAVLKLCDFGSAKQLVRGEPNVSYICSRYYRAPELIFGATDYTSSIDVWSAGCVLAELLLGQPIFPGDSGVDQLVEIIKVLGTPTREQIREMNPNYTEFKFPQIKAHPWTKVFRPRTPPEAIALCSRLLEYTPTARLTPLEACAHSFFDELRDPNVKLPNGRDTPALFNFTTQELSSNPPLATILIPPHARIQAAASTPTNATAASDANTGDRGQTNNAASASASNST

As usually defined, the IC50 is the point on the concentration scale where inhibition reaches its midpoint. Read a high IC50 as weaker potency in that assay. `COc1ccc(-c2oc3ncnc(N)c3c2-c2cccnc2)cc1` displayed a half-maximal inhibitory concentration (IC50) in assay [1] of 80 nM.

Regarding `COc1ccc(-c2cc3c(NC(=O)CC4CCCC4)ncnc3o2)cc1`, the IC50 in assay [1] was 320 nM; in assay [2], more than 19000 nM; in assay [3] it was more than 48000 nM.

In the case of `COc1ccc(-c2cc3c(NC(=O)N4CCOCC4)ncnc3o2)cc1`, the figures for the half-maximal inhibitory concentration (IC50) in assay [1], in assay [2] and in assay [3] were more than 34000 nM, more than 20000 nM and more than 48000 nM, respectively.

Consider `O=C(Nc1ncnc2oc(-c3ccc(F)cc3)cc12)C1CCCC1`, for which the IC50 is 219 nM in assay [1], more than 19000 nM in assay [2] and more than 19000 nM in assay [3].

Turning to `COc1ccc(-c2cc3c(NC(=O)C4CC4)ncnc3o2)cc1`, the values for the concentration for half-maximal inhibition (IC50) in assay [1], in assay [2] and in assay [3] were 316 nM, more than 20000 nM and 3550 nM, respectively.

On to `Cc1ccc(-c2cc3c(NC(=O)C4CC4)ncnc3o2)cc1` [GW819230X], for which the IC50 in assay [1] was 617 nM; in assay [2] it was more than 21000 nM; in assay [3], 630 nM.

As usually defined, the EC50 is the concentration at which the effect is half-maximal. The low end stands for greater potency, the high end for weaker potency. As for `O=C(Nc1ncnc2oc(-c3ccccc3)cc12)C1CCCC1`, the EC50 in the assay with L6 was more than 10000 nM. The values for the IC50 in assay [1], in assay [2] and in assay [3] were 20 nM, more than 19000 nM and more than 23000 nM, respectively.

In the case of `COc1ccc(-c2cc3c(NC(=O)c4ccco4)ncnc3o2)cc1`, the IC50 in assay [1] was 2400 nM; in assay [2], more than 20000 nM; in assay [3], more than 48000 nM.

In the case of `COc1ccc(-c2cc3c(NC(=O)C(C)C)ncnc3o2)cc1`, the IC50 in assay [1] is 130 nM; in assay [2] it was more than 21000 nM; in assay [3], more than 48000 nM.

`COc1ccc(-c2cc3c(NC(=O)N4CCCC4)ncnc3o2)cc1`: the IC50 was 1950 nM in assay [1], more than 21000 nM in assay [2] and 12300 nM in assay [3].

For `COc1ccc(-c2cc3c(NC(=O)C4CCCC4)ncnc3o2)cc1`, the concentration for half-maximal inhibition (IC50) is 30 nM in assay [1], more than 19000 nM in assay [2] and 1020 nM in assay [3].

Regarding `CCCCCC(=O)Nc1ncnc2oc(-c3ccc(OC)cc3)cc12`, the values for the IC50 in assay [1], in assay [2] and in assay [3] were 437 nM, more than 19000 nM and more than 48000 nM, respectively.

`O=C(Nc1ncnc2oc(-c3cccnc3)cc12)C1CC1` yielded a concentration for a half-maximal effect (EC50) in the assay on L6 of 740 nM. Further, the IC50 in assay [1] came to 5 nM; in assay [2], 440 nM; in assay [3], 3240 nM.

For `O=C(Nc1ncnc2oc(-c3ccccc3)cc12)C1CC1`, the concentration for half-maximal inhibition (IC50) in assay [1] was 170 nM; in assay [2], more than 21000 nM; in assay [3] it was 830 nM.

Consider `O=C(Nc1ncnc2oc(-c3ccc(Cl)cc3)cc12)C1CCCC1`, for which the IC50 in assay [1] is 550 nM; in assay [2], more than 20000 nM; in assay [3] it was more than 20000 nM.

For `Cc1ccc(-c2cc3c(NC(=O)C4CCCC4)ncnc3o2)cc1`, the 50% inhibitory concentration (IC50) in assay [1] is 240 nM; in assay [2], more than 20000 nM; in assay [3] it was more than 20000 nM.

`COc1ccc(-c2cc3c(NC(=O)c4cccc(F)c4)ncnc3o2)cc1`: the 50% inhibitory concentration (IC50) in assay [1] was more than 35000 nM; in assay [2] it was more than 21000 nM; in assay [3], 21900 nM.

For the compound `O=C(Nc1ncnc2oc(-c3ccc(Cl)cc3)cc12)C1CC1`, the IC50 is 1000 nM in assay [1], more than 20000 nM in assay [2] and 2040 nM in assay [3].

`O=C(Nc1ncnc2oc(-c3cccnc3)cc12)C1CCCC1` displayed an EC50 in the assay with L6 of 390 nM. For the same compound, the IC50 is 5 nM in assay [1], 450 nM in assay [2] and more than 24000 nM in assay [3].

Turning to `O=C(Nc1ncnc2oc(-c3ccc(F)cc3)cc12)C1CC1`, the IC50 is 575 nM in assay [1], more than 19000 nM in assay [2] and 2040 nM in assay [3].

As for `COc1ccc(-c2cc3c(NC(=O)C4CCCCC4)ncnc3o2)cc1`, the IC50 in assay [1] is 1820 nM; in assay [2] it was more than 20000 nM; in assay [3], more than 48000 nM.

On to `COc1ccc(-c2cc3c(NC(=O)CCSC)ncnc3o2)cc1`, for which the results for the half-maximal inhibitory concentration (IC50) in assay [1], in assay [2] and in assay [3] were 537 nM, more than 20000 nM and more than 47000 nM, respectively.

The values are drawn from ChEMBL document CHEMBL1137112, “4-Acylamino-6-arylfuro[2,3-d]pyrimidines: potent and selective glycogen synthase kinase-3 inhibitors” (Bioorg Med Chem Lett, 2004).
